# What was measured:
# PANC02 tumors = test: PANC02 model, tumor vascularization (CD31 staining); type: in vivo; settings: 80 μg intra-tumor every other day for 2.5 weeks; compared with control treated mice
# Procedure: FIG. 11 is a pair of images showing that intra-tumor injection of (11R)-71-85 reduces tumor vascularization. WT C57BL/6 mice were injected with 7.5×10^5 PANC02 cells and 16 days later were injected with 80 μg of either (11R)-71-85 or (11R)-Scrambled. Mice received intra-tumor injections every other day for 2.5 weeks. Twenty-four hours after the last injection, tumors were collected, fixed in formalin, and stained for the endothelial marker CD31, an indicator of tumor vascularization.
# Tumor vascularization was also assessed in WT mice treated with (11R)-71-85. WT C57BL/6 mice were injected with 7.5×10^5 PANC02 cells. After 16 days, mice received intra-tumor injections of 80 μg of (11R)-71-85 or (11R)-Scrambled every other day for 2.5 weeks. Twenty-four hours after the last injection, tumors were collected, fixed in formalin, and stained for the endothelial marker CD31, an indicator for tumor vascularization.
# Nfatc1 and Irf4 mRNA = Nfatc1 and Irf4 mRNA in spleen T cells after i.v. injection; type: in vivo, mice; settings: 50 μg i.v.; total T cells and CD4+ T cells from spleen
# Procedure: FIG. 8 is a series of graphs showing reduction in expression of Nfatc1 and Irf4 in CD4^+ T cells following injection of (11R)-71-85. WT C57BL/6 mice were injected i.v. with 50 μg of DMSO, (11R)-Scrambled, or (11R)-71-85 and either total T cells or CD4±T cells were purified from spleen at different times. Purified cells were stimulated in vitro with anti-CD3/CD28 for 24 hours and the mRNA levels of the indicated transcription factors were determined by quantitative real-time PCR.
# Expression of NFATc1 and IRF4, two transcription factors activated upon TCR stimulation, was also evaluated after intravenous (i.v.) injection of (11R)-71-85. WT C57BL/6 mice were injected i.v. with 50 μg of DMSO, (11R)-Scrambled, or (11R)-71-85, and either total T cells or CD4±T cells were purified from spleen at different times. Purified cells were stimulated in vitro with anti-CD3/CD28 for 24 hours and the mRNA levels of Nfatc1 and Irf4 were determined by quantitative real-time PCR.
# [1] = test system: tumor-infiltrating T cells; test: KPC mice, intracellular TNF-α of tumor infiltrating cells after intraperitoneal injection; type: in vivo; settings: 80 μg intraperitoneal every other day for 1 month
# Procedure: FIG. 12 is a panel of flow cytometry plots showing that intraperitoneal injection of (11R)-71-85 inhibits TNF-α secretion from tumor-infiltrating T cells from KPC mice. KPC mice are genetically engineered to develop pancreatic cancer because of oncogene expression and p53 haploinsufficiency. KPC mice received intraperitoneal injections of 80 μg of either (11R)-71-85 or (11R)-Scrambled every other day for 1 month. Twenty-four hours after the last injection, tumor infiltrating cells were harvested and restimulated with PMA and ionomycin, or left unstimulated, in the presence of Golgi inhibitor for 4 hours. Expression of intracellular TNF-α was determined by flow cytometry.
# A second murine model of pancreatic cancer was used to evaluate the effect of (11R)-71-85 on cytokine secretion by tumor cells. KPC mice are genetically engineered to develop pancreatic cancer because of oncogene expression and p53 haploinsufficiency. KPC mice were administered 80 μg of either (11R)-71-85 or (11R)-Scrambled by intraperitoneal injection every other day for 1 month. Twenty-four hours after the last injection, tumor infiltrating cells were harvested and restimulated with PMA and ionomycin, or left unstimulated, in the presence of Golgi inhibitor for 4 hours. Expression of intracellular TNF-α was determined by flow cytometry (FIG. 12).
# T cells = test: Inflammatory cytokine production by T cells (flow cytometry); type: cell-based
# Source text: FIGS. 4A-4B are a series flow cytometry plots showing inflammatory cytokine secretion by CD4^+ (FIG. 4A) and CD8^+ (FIG. 4B) T cells. T cells were purified from spleen and stimulated with anti-CD3 plus anti-CD28 for 3 days. Cells were then left unstimulated overnight and treated with the indicated concentrations of (11R)-71-85, control peptide (11R)-Ctrl, or DMSO (no peptide). After treatment, cells were restimulated with either anti-CD3 plus anti-CD28, or PMA plus ionomycin supplemented with monensin. Cytokine expression was measured by flow-cytometry.
# To evaluate cytokine production, T cells were purified from spleen and stimulated with anti-CD3 plus anti-CD28 for 3 days. Cells were then left unstimulated overnight and treated with 1 or 2 μM (11R)-71-85 or control peptide (11R)-Ctrl, or with DMSO only. After treatment, cells were restimulated with either anti-CD3 plus anti-CD28 (to stimulate the TCR and the alternative p38 pathway), or PMA plus ionomycin supplemented with monensin (to stimulate the classical p38 pathway). Cytokine expression was measured by flow-cytometry.
substance,measurement,setting,value
"(11R)-71-85: fusion protein: 11 arginine residues added to the N-terminus of the Gadd45α 71-85 peptide (LQIHFTLIQAFCCEN; N-terminal 11 arginine; UniProt P24522 71-85, looked up, fragment)",CD31 staining (tumor vascularization),PANC02 tumors,significant reduction
same,Irf4 mRNA expression following TCR stimulation,Nfatc1 and Irf4 mRNA,inhibits
same,Nfatc1 mRNA expression following TCR stimulation,Nfatc1 and Irf4 mRNA,inhibits
same,TNF-α secretion by tumor-infiltrating T cells,[1],inhibits
same,"inhibition of production of TNF-α and IFN-γ, 2 μM compared with 1 μM",T cells; 2 μM versus 1 μM,to a greater extent
same,cytokine production in response to PMA plus ionomycin,"T cells; 1 or 2 μM, restimulated with PMA plus ionomycin",no significant effect
same,production of TNF-α in response to TCR stimulation,"T cells; 1 or 2 μM, restimulated with anti-CD3 plus anti-CD28",inhibits
